Test results taken from patent US8124788B2, “Spirocyclic cyclohexane compounds with analgesic activity” (Gruenenthal GmbH, priority 2006, dated 2012).

Target: T1, human μ opiate receptor (Homo sapiens, UniProt P35372)
T1 construct: purchased PerkinElmer Life Sciences, Zaventem, Belgium RB-HOM; host or cells: CHO-K1 cells (recombinant expression)
Test: Affinity for the human μ opiate receptor ([3H]-naloxone displacement, CHO-K1 membrane preparation, SPA)
Assay type: binding
Conditions: for μ opioid receptor [1 μmol], % inhibition: compounds prepared via automated synthesis, single measurements at a test concentration of 1 μM
Method: The receptor affinity for the human μ opiate receptor is determined in a homogeneous set-up in microtitre plates. For this purpose, dilution series of the substances to be tested are incubated with a receptor membrane preparation (15-40 μg of protein/250 μl of incubation batch) of CHO-K1 cells which express the human μ opiate receptor (RB-HOM receptor membrane preparation from PerkinElmer Life Sciences, Zaventem, Belgium) in the presence of 1 nmol/l of the radioactive ligand [^3H]-naloxone (NET719, PerkinElmer Life Sciences, Zaventem, Belgium) and 1 mg of WGA-SPA-Beads (wheat germ agglutinin SPA beads from Amersham/Pharmacia, Freiburg, Germany) in a total volume of 250 μl for 90 minutes at room temperature. 50 mmol/l of Tris-HCl supplemented with 0.06% of bovine serum albumin are used as the incubation buffer. 100 μmol/l of naloxone are additionally added for determination of the non-specific binding. After the end of the ninety-minute incubation time, the microtitre plates are centrifuged for 20 minutes at 1,000 g and the radioactivity is measured in a β-counter (Microbeta-Trilum, PerkinElmer Wallac, Freiburg, Germany). The percentage displacement of the radioactive ligand from its binding to the human μ opiate receptor is determined at a concentration of the test substances of 1 μmol/l and stated as the percentage inhibition of the specific binding. Starting from the percentage displacement by various concentrations of the test substances, IC50 inhibitory concentrations which cause a 50 percent displacement of the radioactive ligand are calculated. By conversion by means of the Cheng-Prusoff relationship, Ki values for the test substances are obtained.

T1 sequence (P35372 whole entry): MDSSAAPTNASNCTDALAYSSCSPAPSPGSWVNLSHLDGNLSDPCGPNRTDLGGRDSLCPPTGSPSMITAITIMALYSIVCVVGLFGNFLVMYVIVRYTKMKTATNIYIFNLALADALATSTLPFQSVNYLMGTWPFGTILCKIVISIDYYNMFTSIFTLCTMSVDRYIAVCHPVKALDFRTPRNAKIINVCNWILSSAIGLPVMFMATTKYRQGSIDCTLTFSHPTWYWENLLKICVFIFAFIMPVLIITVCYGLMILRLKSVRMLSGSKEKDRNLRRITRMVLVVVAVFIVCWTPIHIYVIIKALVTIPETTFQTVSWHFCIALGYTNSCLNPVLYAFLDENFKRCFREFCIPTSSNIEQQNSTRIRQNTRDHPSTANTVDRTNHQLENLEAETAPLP

CN(C)C(c1ccccc1)C1CCC2(CC1)c1[nH]c3ccccc3c1CCN2C(=O)C=Cc1ccccc1 (stereo not shown) [Compound 80, 1-{1,1-[3-(dimethylamino-phenylmethyl)-pentamethylene]-3,4-dihydro-1H-2,9-diazafluoren-2-yl}-3-phenylprop-2-en-1-one] was tested, and the “μ opioid receptor [1 μmol], % inhibition” value was 41%.
CN(C)C(c1ccc(Cl)cc1)C1CCC2(CC1)c1[nH]c3ccccc3c1CCN2C(=O)COCc1ccccc1 (stereo not shown) [Compound 99, 2-(benzyloxyacetyl)-{1,1-[3-(dimethylamino-(4-chlorophenyl)methyl)-pentamethylene]-3,4-dihydro-1H-2,9-diazafluorene}] was tested, and the “μ opioid receptor [1 μmol], % inhibition” value was 35%.
In the case of CN(C)C(c1ccccc1)C1CCC2(CC1)c1[nH]c3ccccc3c1CCN2C(=O)C1CCCCC1 (stereo not shown) [Compound 59, 2-(cyclohexylcarbonyl)-{1,1-[3-(dimethylamino-phenylmethyl)-pentamethylene]-3,4-dihydro-1H-2,9-diazafluorene}], the “μ opioid receptor [1 μmol], % inhibition” value was 29%.
In the case of CCC(=O)N1CCc2c([nH]c3ccccc23)C12CCC(C(c1ccc(Cl)cc1)N(C)C)CC2 (stereo not shown) [Compound 120, 2-propionyl-{1,1-[3-(dimethylamino-(4-chlorophenyl)methyl)-pentamethylene]-3,4-dihydro-1H-2,9-diazafluorene}], the “μ opioid receptor [1 μmol], % inhibition” value was 29%.
With CN(C)C(c1cccc(F)c1)C1CCC2(CC1)c1[nH]c3ccccc3c1CCN2C(=O)COCc1ccccc1 (stereo not shown) [Compound 94, 2-(benzyloxyacetyl)-{1,1-[3-(dimethylamino-(3-fluorophenyl)methyl)-pentamethylene]-3,4-dihydro-1H-2,9-diazafluorene}] the “μ opioid receptor [1 μmol], % inhibition” value was 32%.
With CN(C)C(c1ccc(Cl)cc1)C1CCC2(CC1)c1[nH]c3ccccc3c1CCN2C(=O)c1cc2ccccc2s1 (stereo not shown) [Compound 78, 2-(1-benzothien-2-ylcarbonyl)-{1,1-[3-(dimethylamino-(4-chlorophenyl)-methyl)-pentamethylene]-3,4-dihydro-1H-2,9-diazafluorene}] the “μ opioid receptor [1 μmol], % inhibition” value was 11%.
With COCC(=O)N1CCc2c([nH]c3ccccc23)C12CCC(C(c1ccccc1)N(C)C)CC2 (stereo not shown) [Compound 81, 2-(methoxyacetyl)-{1,1-[3-(dimethylamino-phenylmethyl) -pentamethylene]-3,4-dihydro-1H-2,9-diazafluorene}] the “μ opioid receptor [1 μmol], % inhibition” value was 0%.
In the case of CC(Oc1ccccc1)C(=O)N1CCc2c([nH]c3ccccc23)C12CCC(C(c1ccc(Cl)cc1)N(C)C)CC2 (stereo not shown) [Compound 133, 2-(2-phenoxypropanoyl)-{1,1-[3-(dimethylamino-(4-chlorophenyl)methyl)-pentamethylene]-3,4-dihydro-1H-2,9-diazafluorene}], the “μ opioid receptor [1 μmol], % inhibition” value was 71%.
In the case of CN(C)C(c1ccccc1)C1CCC2(CC1)c1[nH]c3ccccc3c1CCN2C(=O)c1csc2ccccc12 (stereo not shown) [Compound 103, 2-(1-benzothien-3-ylcarbonyl)-{1,1-[3-(dimethylamino-phenylmethyl)-pentamethylene]-3,4-dihydro-1H-2,9-diazafluorene}], the “μ opioid receptor [1 μmol], % inhibition” value was 13%.
In the case of CN(C)C(c1cccc(F)c1)C1CCC2(CC1)c1[nH]c3ccccc3c1CCN2C(=O)C=Cc1ccccc1Cl (stereo not shown) [Compound 72, 1-{1,1-[3-(dimethylamino-(3-fluorophenyl)methyl) -pentamethylene]-3,4-dihydro-1H-2,9-diazafluoren-2-yl}-3-(2-chlorophenyl)prop-2-en-1-one], the “μ opioid receptor [1 μmol], % inhibition” value was 24%.
CN(C)C(c1ccc(Cl)cc1)C1CCC2(CC1)c1[nH]c3ccccc3c1CCN2C(=O)Cc1ccc(F)cc1 (stereo not shown) [Compound 123, 2-[(4-fluorophenyl)acetyl]-{1,1-[3-(dimethylamino-(4-chlorophenyl)-methyl)-pentamethylene]-3,4-dihydro-1H-2,9-diazafluorene}] was tested, and the “μ opioid receptor [1 μmol], % inhibition” value was 20%.
COCC(=O)N1CCc2c([nH]c3ccccc23)C12CCC(C(c1cccc(F)c1)N(C)C)CC2 (stereo not shown) [Compound 92, 2-(methoxyacetyl)-{1,1-[3-(dimethylamino-(3-fluorophenyl)methyl)-pentamethylene]-3,4-dihydro-1H-2,9-diazafluorene}] was tested, and the “μ opioid receptor [1 μmol], % inhibition” value was 22%.
CC(C)C(=O)N1CCc2c([nH]c3ccccc23)C12CCC(C(c1ccccc1)N(C)C)CC2 (stereo not shown) [Compound 101, 2-isobutyryl-{1,1-[3-(dimethylamino-phenylmethyl) -pentamethylene]-3,4-dihydro-1H-2,9-diazafluorene}] was tested, and the “μ opioid receptor [1 μmol], % inhibition” value was 74%.
With CC1Cc2c([nH]c3ccc(F)cc23)C2(CCC(C(c3ccc(Cl)cc3)N(C)C)CC2)O1 (stereo not shown) [Compound 55, 6-Fluoro-3-methyl-1,1-[3-(dimethylamino-(4-chlorophenyl) -methyl)-penta-methylene]-1,3,4,9-tetrahydropyrano[3,4-b]indole] the “μ opioid receptor [1 μM], % inhibition” value (1 μM test substance, displacement of [3H]-naloxone) was 58%.
With CC(=Cc1ccccc1)C(=O)N1CCc2c([nH]c3ccccc23)C12CCC(C(c1cccc(F)c1)N(C)C)CC2 (stereo not shown) [Compound 68, 1-{1,1-[3-(dimethylamino-(3-fluorophenyl)methyl) -pentamethylene]-3,4-dihydro-1H-2,9-diazafluoren-2-yl}-2-methyl-3-phenylprop-2-en-1-one] the “μ opioid receptor [1 μmol], % inhibition” value was 19%.
CN(C)C(c1ccc(Cl)cc1)C1CCC2(CC1)c1[nH]c3ccccc3c1CCN2C(=O)Cc1cccc(Br)c1 (stereo not shown) [Compound 132, 2-[(3-bromophenyl)acetyl]-{1,1-[3-(dimethylamino-(4-chlorophenyl)-methyl)-pentamethylene]-3,4-dihydro-1H-2,9-diazafluorene}] was tested, and the “μ opioid receptor [1 μmol], % inhibition” value was 65%.
For CCCCC(CC)C(=O)N1CCc2c([nH]c3ccccc23)C12CCC(C(c1ccccc1)N(C)C)CC2 (stereo not shown) [Compound 100, 2-(2-ethylhexanoyl)-{1,1-[3-(dimethylamino-phenylmethyl)-pentamethylene]-3,4-dihydro-1H-2,9-diazafluorene}], the “μ opioid receptor [1 μmol], % inhibition” value was 65%.
In the case of CC(C)CC(=O)N1CCc2c([nH]c3ccccc23)C12CCC(C(c1ccc(Cl)cc1)N(C)C)CC2 (stereo not shown) [Compound 134, 1-{1,1-[3-(dimethylamino-(4-chlorophenyl)methyl) -pentamethylene]-3,4-dihydro-1H-2,9-diazafluoren-2-yl}-3-methylbutan-1-one], the “μ opioid receptor [1 μmol], % inhibition” value was 47%.
With CC(=O)N1CCc2c([nH]c3ccccc23)C12CCC(C(c1ccccc1)N(C)C)CC2 (stereo not shown) [Compound 79, 2-acetyl-{1,1-[3-(dimethylamino-phenylmethyl) -pentamethylene]-3,4-dihydro-1H-2,9-diazafluorene}] the “μ opioid receptor [1 μmol], % inhibition” value was 4%.
CN(C)C(c1ccc(Cl)cc1)C1CCC2(CC1)c1[nH]c3ccccc3c1CCN2C(=O)CCc1ccccc1 (stereo not shown) [Compound 131, 2-(3-phenylpropanoyl)-{1,1-[3-(dimethylamino-(4-chlorophenyl)methyl)-pentamethylene]-3,4-dihydro-1H-2,9-diazafluorene}] was tested, and the “μ opioid receptor [1 μmol], % inhibition” value (1 µM) was 51%.
With CC(=O)N1CCc2c([nH]c3ccccc23)C12CCC(C(c1ccc(F)cc1)N(C)C)CC2 (stereo not shown) [Compound 84, acetyl-{1,1-[3-(dimethylamino-(4-fluorophenyl)methyl) -pentamethylene]-3,4-dihydro-1H-2,9-diazafluorene}] the “μ opioid receptor [1 μmol], % inhibition” value was 41%.
With CCC(=O)N1CCc2c([nH]c3ccccc23)C12CCC(C(c1cccc(F)c1)N(C)C)CC2 (stereo not shown) [Compound 113, 2-propionyl-{1,1-[3-(dimethylamino-(3-fluorophenyl)methyl)-pentamethylene]-3,4-dihydro-1H-2,9-diazafluorene}] the “μ opioid receptor [1 μmol], % inhibition” value was 13%.
